Results as given in patent US6569805B1, “Herbicidal compositions” (Aventis CropScience GmbH, priority 1999, dated 2003).
Several values for one entry are separate records, joined by “and”; a condition that tells them apart may be missing. Equal values may be shown once.

Tests used:
Assay type in all cases: in vivo
Rice = test: Greenhouse test under paddy rice conditions, visual scoring about 3 weeks after application (Example 4); settings: crop plant, herbicide 0.004 kg/ha without vegetable oil
Description: (§1) Rice, and Cyperus esculentus as typical harmful plant, were grown in a greenhouse under paddy rice conditions (flooding level of the water 2-3 cm) in sealed plastic pots and sprayed with an active substance preparation at an application rate of (converted) 600 l/ha. The test plants were then placed in the greenhouse under optimal growth conditions and kept like this over the entire test period. Approximately 3 weeks after the application, they were evaluated by means of visually scoring the damage to the plants in comparison with the untreated control, using the following scheme: 100%=total destruction, 0%=no action. The test results are shown in the table hereinbelow, the action of the herbicide/safener combination and of the vegetable oil when used separately being stated in brackets: […]

Cyperus esculentus = test: as above; settings: herbicide 0.004 kg/ha without vegetable oil
Description: as §1

Echinochloa crus galli = test: Greenhouse pot test, post-emergence spray, damage evaluated visually 2-3 weeks after treatment (Example 3); settings: herbicide 0.015 kg/ha without vegetable oil
Description: (§2) Seeds or rhizome pieces of monocotyledonous and dicotyledonous harmful plants and useful plants were placed in sandy loam in pots of diameter 9 to 13 cm and covered with soil. The pots were kept in a greenhouse under optimal conditions. In the two- to three-leaf stage, i.e. approximately three weeks after cultivation has begun, the test plants were treated with the herbicides and vegetable oil in the form of aqueous dispersions or suspensions or emulsions and the green parts of the plant were sprayed with various dosage rates at an application rate of (converted) 300 l of water/ha. To grow the plants further, the pots were kept in the greenhouse under optimal conditions. The damage to the useful plants and harmful plants was evaluated visually 2-3 weeks after the treatment using the following scheme: 100%=total destruction, 0%=no action. The test results are shown in the table hereinbelow, the action of the herbicide/safener combination and of the vegetable oil when used separately being stated in brackets: […]

Sorghum halepense = test: as above; settings: herbicide 0.015 kg/ha without vegetable oil
Description: as §2

Chenopodium album = test: as above; settings: herbicide 0.015 kg/ha without vegetable oil
Description: as §2

| Compound | Rice Action (%), herbicide used separately (first value in brackets) (Rice) | CYPES Action (%), herbicide used separately (first value in brackets) (Cyperus esculentus) | ECHCG Action (%), herbicide used separately (first value in brackets) (Echinochloa crus galli) | SORHA Action (%), herbicide used separately (first value in brackets) (Sorghum halepense) | CHEAL Action (%), herbicide used separately (first value in brackets) (Chenopodium album) |
| --- | --- | --- | --- | --- | --- |
| CCOc1ccccc1OS(=O)(=O)NC(=O)Nc1nc(OC)cc(OC)n1 [A13, 1-(4,6-dimethoxypyrimidin-2-yl)-3-(2-ethoxyphenoxysulfonyl)urea] | 0 (0 + 0) % | 35% |  |  |  |
| COc1cc(OC)nc(NC(=O)NS(=O)(=O)c2ncccc2C(=O)N(C)C)n1 [V1, Nicosulfuron] |  |  | 0 (0 + 0) % and 0% | (0 + 0) % | (0 + 0) % |
